# Laboratory results: ChEMBL document CHEMBL3580578, “Optimization of 5-(2,6-dichlorophenyl)-3-hydroxy-2-mercaptocyclohex-2-enones as potent inhibitors of human lactate dehydrogenase” (Bioorg Med Chem Lett, 2014)
# How the values were obtained:
# [1] = target: L-lactate dehydrogenase A chain (Homo sapiens, UniProt P00338); test: Inhibition of human LDH-A by biochemical assay
# [2] = target: T1, Malate dehydrogenase, mitochondrial (Homo sapiens, UniProt P40926); test: Inhibition of malate dehydrogenase 2 (unknown origin)
# T1 sequence (P40926 whole entry): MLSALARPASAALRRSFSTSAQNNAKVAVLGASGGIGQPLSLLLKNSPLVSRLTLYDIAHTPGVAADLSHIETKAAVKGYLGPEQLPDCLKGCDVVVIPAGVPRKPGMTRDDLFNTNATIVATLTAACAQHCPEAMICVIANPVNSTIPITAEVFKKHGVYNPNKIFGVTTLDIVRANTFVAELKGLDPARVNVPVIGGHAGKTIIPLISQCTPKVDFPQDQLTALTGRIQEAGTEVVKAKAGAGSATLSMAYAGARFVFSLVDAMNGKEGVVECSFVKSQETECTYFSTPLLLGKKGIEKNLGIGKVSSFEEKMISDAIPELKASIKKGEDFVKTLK
# [3] = target: T2, Malate dehydrogenase, cytoplasmic (Homo sapiens, UniProt P40925); test: Inhibition of malate dehydrogenase 1 (unknown origin)
# T2 sequence (P40925 whole entry): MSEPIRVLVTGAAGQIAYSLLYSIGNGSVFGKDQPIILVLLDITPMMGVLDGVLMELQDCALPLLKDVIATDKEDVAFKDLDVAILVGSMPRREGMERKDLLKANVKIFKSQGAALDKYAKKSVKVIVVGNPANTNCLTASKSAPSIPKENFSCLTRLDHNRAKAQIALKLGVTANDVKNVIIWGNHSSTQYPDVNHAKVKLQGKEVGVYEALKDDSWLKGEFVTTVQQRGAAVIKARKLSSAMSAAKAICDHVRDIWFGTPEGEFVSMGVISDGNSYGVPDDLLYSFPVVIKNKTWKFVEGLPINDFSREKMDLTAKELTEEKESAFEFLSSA
# [4] = target: L-lactate dehydrogenase B chain (Homo sapiens, UniProt P07195)
# Description: Inhibition of LDH-B (unknown origin)
# [5] = Plasma protein binding in human; assay type: ADME, cell-free; settings: read-out: PPB
# [6] = Apparent permeability from apical to basolateral side in MDCK cells; assay type: ADME, cell-based, Canis lupus familiaris; settings: dog
# [7] = Kinetic solubility of the compound in PBS buffer at pH 7.4
# [8] = Stability in mouse plasma assessed as parent compound remaining at 37 degC after 1 hr; assay type: ADME, cell-free; settings: read-out: Stability
# Chain of L-lactate dehydrogenase B chain (P07195 whole entry): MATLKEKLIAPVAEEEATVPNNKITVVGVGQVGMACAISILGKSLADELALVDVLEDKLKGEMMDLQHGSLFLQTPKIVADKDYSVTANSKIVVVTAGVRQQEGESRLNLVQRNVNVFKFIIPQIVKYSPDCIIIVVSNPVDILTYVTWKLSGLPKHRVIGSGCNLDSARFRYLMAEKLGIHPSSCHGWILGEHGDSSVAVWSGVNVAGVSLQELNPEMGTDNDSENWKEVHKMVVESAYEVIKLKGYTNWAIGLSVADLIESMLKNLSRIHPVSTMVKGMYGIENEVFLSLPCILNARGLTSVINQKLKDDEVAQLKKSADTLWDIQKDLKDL
SMILES,IC50 [1] [µM],IC50 [2] [µM],IC50 [3] [µM],IC50 [4] [µM],fraction unbound [5],Papp A→B [6] [×10⁻⁶ cm/s],solubility kinetic [7] [µM],remaining at 1 h [8] [%]
O=C1CC(c2c(Cl)ccc(-c3cccnc3)c2Cl)CC(O)=C1Sc1ccccc1Cl (configuration not stated),0.108,≥ 10,≥ 10,–,–,–,–,–
Nc1ccc(Cl)c(SC2=C(O)CC(c3c(Cl)cccc3Cl)CC2=O)c1 (configuration not stated),0.64,≥ 10,≥ 10,–,–,–,–,–
COc1ccc(Cl)c(SC2=C(O)CC(c3c(Cl)ccc(-c4ccncc4)c3Cl)CC2=O)c1 (configuration not stated),0.035,≥ 10,≥ 10,–,–,–,–,–
O=C1CC(c2c(Cl)ccc(-c3ccncc3)c2Cl)CC(O)=C1Sc1ccccc1Cl (configuration not stated),0.085,≥ 10,≥ 10,–,–,–,–,–
O=C1CC(c2c(Cl)ccc(N3CCNCC3)c2Cl)CC(O)=C1Sc1ccccc1Cl (configuration not stated),0.17,≥ 10,≥ 10,–,–,–,–,–
CC(C)Oc1ccc(Cl)c(C2CC(=O)C(Sc3cc(O)ccc3C#N)=C(O)C2)c1Cl (configuration not stated),0.015,≥ 10,≥ 10,0.14,< 0.001,1.1,50,–
CC(C)Oc1ccc(Cl)c(C2CC(=O)C(Sc3cc(O)ccc3Cl)=C(O)C2)c1Cl (configuration not stated),0.03,≥ 10,≥ 10,–,–,–,–,–
COc1ccc(Cl)c(SC2=C(O)CC(c3c(Cl)ccc(OC(C)C)c3Cl)CC2=O)c1 (configuration not stated),0.025,≥ 10,≥ 10,–,–,–,–,–
CC(C)Oc1ccc(Cl)c(C2CC(=O)C(Sc3ccccc3Cl)=C(O)C2)c1Cl (configuration not stated),0.09,≥ 10,≥ 10,–,–,–,–,–
O=C1CC(c2c(Cl)ccc(N3CCOCC3)c2Cl)CC(O)=C1Sc1ccccc1Cl (configuration not stated),0.24,≥ 10,≥ 10,–,–,–,–,–
COc1ccc(Cl)c(SC2=C(O)CC(c3c(Cl)cccc3Cl)CC2=O)c1 (configuration not stated),0.37,≥ 10,≥ 10,–,–,–,–,–
O=C1CC(c2c(Cl)cc(N3CCOCC3)cc2Cl)CC(O)=C1Sc1ccccc1Cl (configuration not stated),2.6,≥ 10,≥ 10,–,–,–,–,–
COc1ccc(Cl)c(SC2=C(O)CC(c3c(Cl)ccc(NC4CCOCC4)c3Cl)CC2=O)c1 (configuration not stated),0.03,≥ 10,≥ 10,–,< 0.001,14,49,–
O=C1CC(c2c(Cl)ccc(-c3ccccc3Cl)c2Cl)CC(O)=C1Sc1ccccc1Cl (configuration not stated),0.06,≥ 10,≥ 10,–,–,–,–,–
O=C1CC(c2c(Cl)ccc(-c3ccccc3)c2Cl)CC(O)=C1Sc1ccccc1Cl (configuration not stated),0.1,≥ 10,≥ 10,–,–,–,–,–
CNc1ccc(Cl)c(SC2=C(O)CC(c3c(Cl)cccc3Cl)CC2=O)c1 (configuration not stated),0.17,≥ 10,≥ 10,–,–,–,–,–
COc1ccc(C#N)c(SC2=C(O)CC(c3c(Cl)ccc(OC(C)C)c3Cl)CC2=O)c1 (configuration not stated),0.46,≥ 10,≥ 10,2.4,–,–,–,–
O=C1CC(c2c(Cl)ccc(N3CCN(C4CC4)CC3)c2Cl)CC(O)=C1Sc1ccccc1Cl (configuration not stated),0.23,≥ 10,≥ 10,–,–,–,–,–
CC(=O)N1CCN(c2ccc(Cl)c(C3CC(=O)C(Sc4ccccc4Cl)=C(O)C3)c2Cl)CC1 (configuration not stated),0.1,≥ 10,≥ 10,–,–,–,–,–
O=C1CC(c2c(Cl)ccc(N3CCN(C4COC4)CC3)c2Cl)CC(O)=C1Sc1ccccc1Cl (configuration not stated),0.37,≥ 10,≥ 10,–,–,–,–,–
O=C1CC(c2c(Cl)ccc(NC3CCOCC3)c2Cl)CC(O)=C1Sc1ccccc1Cl (configuration not stated),0.06,≥ 10,≥ 10,–,–,–,–,–
O=C1CC(c2c(Cl)ccc(-c3cncnc3)c2Cl)CC(O)=C1Sc1ccccc1Cl (configuration not stated),1.1,≥ 10,≥ 10,–,–,–,–,–

# Now from value to compound:
IC50 [1] [µM],IC50 [2] [µM],IC50 [3] [µM],IC50 [4] [µM],fraction unbound [5],Papp A→B [6] [×10⁻⁶ cm/s],solubility kinetic [7] [µM],remaining at 1 h [8] [%],SMILES
0.04,≥ 10,≥ 10,–,–,–,–,–,COC(=O)Cc1ccc(Cl)c(SC2=C(O)CC(c3c(Cl)cccc3Cl)CC2=O)c1 (configuration not stated)
0.03,≥ 10,≥ 10,–,–,–,–,–,CCOC(=O)Cc1ccc(Cl)c(SC2=C(O)CC(c3c(Cl)ccc(-c4ccccc4)c3Cl)CC2=O)c1 (configuration not stated)
3.5,≥ 10,≥ 10,–,–,–,–,–,O=C(O)Cc1ccc(Cl)c(SC2=C(O)CC(c3c(Cl)cccc3Cl)CC2=O)c1 (configuration not stated)
–,≥ 10,≥ 10,–,–,–,–,–,O=C1CC(c2c(Cl)cccc2Cl)CC(O)=C1Sc1ccccc1Cl (configuration not stated)
0.3,≥ 10,≥ 10,–,–,–,–,–,O=C(Cc1ccc(Cl)c(SC2=C(O)CC(c3c(Cl)cccc3Cl)CC2=O)c1)NCCO (configuration not stated)
0.006,≥ 10,≥ 10,–,–,10.6,61,72,C[C@@H](OC(=O)Cc1ccc(Cl)c(SC2=C(O)CC(c3c(Cl)cccc3Cl)CC2=O)c1)c1ccccc1 (some centres not stated)
1.8,≥ 10,≥ 10,–,–,–,–,–,CNC(=O)Cc1ccc(Cl)c(SC2=C(O)CC(c3c(Cl)cccc3Cl)CC2=O)c1 (configuration not stated)
10,≥ 10,≥ 10,–,–,–,–,–,CN(C)C(=O)Cc1ccc(Cl)c(SC2=C(O)CC(c3c(Cl)cccc3Cl)CC2=O)c1 (configuration not stated)
0.12,≥ 10,≥ 10,–,–,–,–,–,CC(C)OC(=O)Cc1ccc(Cl)c(SC2=C(O)CC(c3c(Cl)cccc3Cl)CC2=O)c1 (configuration not stated)
0.12,≥ 10,≥ 10,–,–,–,–,–,O=C1CC(c2c(Cl)cccc2Cl)CC(O)=C1Sc1cc(O)ccc1Cl (configuration not stated)
0.13,≥ 10,≥ 10,–,–,–,–,–,CCOC(=O)Cc1ccc(Cl)c(SC2=C(O)CC(c3c(Cl)cccc3Cl)CC2=O)c1 (configuration not stated)
0.09,≥ 10,≥ 10,–,–,–,–,–,C[C@H](OC(=O)Cc1ccc(Cl)c(SC2=C(O)CC(c3c(Cl)cccc3Cl)CC2=O)c1)c1ccccc1 (some centres not stated)
